“Also recorded” adds a separate entry of the source.
Key:
[1] = system: subcutaneous xenografts of human breast cancer MCF-7 cell; test: In vivo pharmacodynamic study, subcutaneous MCF-7 xenograft model; set-up: species or system nude BALB/c mice
Method: Experimental objective: to study the in vivo efficacy of the compound to be tested on subcutaneous xenografts of human breast cancer MCF-7 in nude BALB/c mice model.
Experimental animals: female BALB/C nude mice, 6-8 weeks old, weighing 18-22 g; Supplier: Shanghai Xipur Bikai Experimental Animal Co., Ltd.
Human breast cancer MCF-7 cells (ECACC, item number: 86012803) were cultured in monolayer in vitro. The culture conditions were EMEM (EBSS)+2 mM […]+1% Non Essential Amino Acids (NEAA) medium plus 10% fetal bovine serum, 100 U/mL penicillin and 100 μg/mL streptomycin, incubated in 5% CO2 incubator at 37° C. Cells were passaged through routine digestion using Trypsin EDTA twice a week. When the cell saturation was 80%-90% and the number reached the requirements, cells were collected, counted and inoculated. […]
The experimental index is used for investigating whether tumor growth is inhibited, delayed or cured. The tumor diameter was measured with a vernier caliper twice a week. […]
The antitumor effect of the compound was evaluated by TGI (%) or relative tumor proliferation rate T/C(%). […]
Relative tumor proliferation rate T/C (%): the calculation formula is as follows: T/C %=TRTV/CRTV (TRTV:RTV in treatment group; CRTV:RTV in negative control group). The relative tumor volume (RTV) is calculated according to the results of tumor measurement. […]

[2] = target: T1, mTOR kinase (Homo sapiens, UniProt P42345); test: mTOR kinase inhibitory activity in vitro (discoverx ligand-bead competition binding, qPCR)
T1 construct: purchased discoverx; host or cells: HEK-293
Method: This experiment was tested on discoverx, and all materials and methods were from discoverx.
1. The labeled mTOR kinase was stably expressed in HEK-293 cells.
2. Streptavidin magnetic beads were treated with biotinylated small molecule ligands for 30 minutes at room temperature to produce an affinity resin for kinase analysis;
3. The ligand beads were blocked with excess biotin and washed with buffer (1% bovine serum albumin, 20 […] of dithiothreitol) to wash off unbound ligands and nonspecifically bound ligands;
5. The test compound was dissolved in dimethyl sulfoxide;
6. All compounds used for measurement were dissolved in DMSO and then diluted directly to a concentration of 0.9%;
7. The solution was placed on 384 well polypropylene plates with a volume of 0.02 mL of each well;
8. The plate was shaked at room temperature for 1 hour;
9. The plate was washed with buffer (1× PBS, 0.05% Tween 20);
10. Affinity beads were resuspended in buffer (1× PBS, 0.05% Tween 20, 0.5 μM nonbiotin-affinity ligands) and incubated at room temperature for 30 minutes;
11. The kinase in eluent was measured for its concentration by qPCR.

[3] = system: N87 cells; test: Cell proliferation inhibitory activity (Cell-Titer-Glo), N87; format: cell-based
Method: (§1) Objective: the inhibitory activity of the compound to be tested was tested on cell proliferation.
(§2) Experimental principle: Luciferase in Cell-Titer-Glo reagent uses luciferin, oxygen and ATP as reaction substrates to produce oxidized luciferin and release energy in the form of light. Since ATP is required for luciferase reaction, the total amount of light produced by the reaction is directly proportional to the total amount of ATP in response to cell viability.
(§3) Cell lines: MCF-7 cell line (ATCC-CRL-22), HT-29 cell line (ATCC-HTB-38), OE21 (ECACC-96062201), NCI-N87 cell line (ATCC-CRL-5822)
(§4) Cell Titer-Glo® Luminescent cell viability test kit (Promega #G7573)
(§5) According to the schematic diagram of cell seed plate, 384 or 96 well plate was seeded based on 1000 cells per well with a density of 25 μL per well, and the edge well was supplemented with 25 μL PBS, instead of cells.
(§6) (1) The mother liquor of the compound was 10 mM, and the compound was diluted with DMSO to obtain its initial concentration of 4 mM. The compound was added into the mother liquor plate with 9 μL per well. […]
(§7) The cell plate was taken from the incubator and balanced at room temperature for 30 minutes. […] After 10 minutes, the plate reading was performed on PerkinElmer envision with setting the […] reading time of 0.2 seconds.

[4] = Pharmacokinetic evaluation in plasma of mice (IV and PO); format: in vivo, BALB/C female mice; conditions: mouse
Method: The tested compound was mixed with 5% DMSO/95% 10% polyoxyethylene castor oil (Cremophor EL) followed by vortex and ultrasonic treatment to prepare 1 mg/mL approximate clear solution, which was filtered by microporous membrane before used. BALB/C female mice of 18 to 20 g were injected with the compound solution intravenously at a dose of 1 or 2 mg/kg. The tested compound was mixed with 1% Tween […], 90% aqueous solution followed by vortex and ultrasonic treatment to prepare 1 mg/mL approximate clear solution, which was filtered by microporous membrane before used. BALB/C female mice of 18 to 20 g were given the candidate compound solution orally at a dose of 2 or 10 mg/kg. Whole blood was collected for a certain time to prepare plasma. The medicament was analyzed for its concentration by LC-MS/MS, and the pharmacokinetic parameters were calculated by Phoenix winnonlin software (pharsight company).

[5] = system: MCF-7 cells; test: Cell proliferation inhibitory activity (Cell-Titer-Glo), MCF-7; format: cell-based, human
Method: as §1, §2, §3, §4, §5, §6, §7

[6] = Solid stability test under long-term and accelerated conditions (XRPD); format: physicochemical
Method: Each sample was put into a double-layer LDPE Bag with each layer buckled and sealed respectively, and then the LDPE Bag was put into an aluminum foil bag and heat sealed. The samples were investigated for XRPD under the conditions of 25° C./60% RH (14 bags), 30° C./65% RH (10 bags) and 40° C./75% RH (10 bags). The test results were compared with the initial test results of 0 days.

[7] = Dynamic vapor sorption (DVS) hygroscopicity study; format: physicochemical; conditions: 25.6° C. and 80% RH
Method: Instrument model: SMS DVS Advantage dynamic vapour adsorbent device
Test conditions: taking the sample (10-15 mg) and putting it into a DVS sample tray for test.
Detailed DVS parameters are as follows:
Balance: dm/dt=0.01%/min (minimum: 10 min, maximum: 180 min)
RH(%) test step range: 0%-90%-0% RH (%)
The evaluation of moisture absorption is classed as follows:
DVS Advantage dynamic vapour adsorbent device

With `CNC(=O)c1cccc(-c2ccc3c(N4CCOC[C@@H]4C)nc(N4CCOC[C@@H]4C)nc3n2)c1` [AZD2014, reference compound] the “RTV (day 27)” value ([1]; 15 mg/kg) was 0.85 ± 0.26.

For `C[C@H]1COCCN1c1nc(N2CCOC3(CC3)C2)nc2nc(-c3cccc(C(N)=O)c3)ccc12` [Compound of formula (I)], the “mTOR kinase inhibitory activity (in words)” value [2] was “significant or even unexpected mTOR kinase inhibitory activity, which is better than the current clinical compound AZD2014”, the “inhibitory activity on proliferation of N87 cells (in words)” value [3] was “obvious inhibitory activity” and the bioavailability ([4]; female, BALB/C, plasma, 10 mg/kg, oral administration) was ~100%. For the same compound, the “pharmacokinetic properties compared with the reference compound (in words)” value [4] was “the same or even better pharmacokinetic properties as the reference compound”, the “inhibitory activity on proliferation of MCF-7 cells (in words)” value [5] was “obvious inhibitory activity” and the “efficacy in MCF-7 Xenograft tumor model compared with AZD2014 (in words)” value ([1]; mouse, in vivo) was “equivalent to that of AZD2014; also recorded: comparable to AZD2014”.

With `C[C@H]1COCCN1c1nc(N2CCOC3(CC3)C2)nc2nc(-c3cccc(C(N)=O)c3)ccc12` the “Crystal form (XRPD)” value ([6]; 25° C./60% RH, 3 months) was “Crystal form A”, the “Crystal form (XRPD)” value ([6]; 25° C./60% RH, 6 months) was “Crystal form A” and the “Crystal form (XRPD)” value ([6]; 40° C./75% RH, 3 months) was “Crystal form A”. The “Crystal form (XRPD)” value ([6]; 40° C./75% RH, 6 months) was “Crystal form A”, the “Crystal form (XRPD)” value ([6]; Day 0 (initial)) was “Crystal form A” and the “solid stability (in words)” value ([6]; high temperature, high humidity and strong light) was “good stability”. The “hygroscopicity (classification)” value [7] was “without hygroscopicity” and the “ΔW % (hygroscopic weight gain)” value [7] was < 0.2%.

— US20220306622A1, “SALT AND CRYSTAL FORM OF MTORC1/2 DUAL KINASE ACTIVITY INHIBITOR AND PREPARATION METHOD THEREFOR” (MEDSHINE DISCOVERY INC., priority 2019, published 2022)
